In patent publication US5716929A (Vertex Pharmaceuticals, Inc., priority 1995, dated 1998):
Square brackets hold non-standard residues; d marks the D form. Peptide text beside a SMILES is read from it. * marks the point of attachment. ξ: configuration not given here. Hyp = O=C(O)[C@@H]1C[C@@H](O)CN1; Tic = O=C(O)[C@@H]1Cc2ccccc2CN1; ξD = NC(CC(=O)O)C(=O)O; Allyl = C=CC*

These molecules were tested against T1, interleukin-1β converting enzyme (ICE) (Homo sapiens, UniProt P29466) (assay: Enzyme assay with UV-visible substrate (Succinyl-Tyr-Val-Ala-Asp-pNitroanilide)). Conditions: Example 2 table.
T1 sequence (P29466 120-297 limits assumed): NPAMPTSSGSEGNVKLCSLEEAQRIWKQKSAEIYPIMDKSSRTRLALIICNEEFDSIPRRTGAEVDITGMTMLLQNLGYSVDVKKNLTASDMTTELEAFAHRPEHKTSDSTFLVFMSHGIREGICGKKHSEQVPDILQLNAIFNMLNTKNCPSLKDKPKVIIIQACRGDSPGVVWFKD
T1 sequence (P29466 317-404 limits assumed): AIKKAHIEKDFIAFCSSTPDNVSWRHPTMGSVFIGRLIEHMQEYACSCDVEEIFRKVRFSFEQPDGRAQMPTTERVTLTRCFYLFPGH
Type: biochemical
Procedure: 1. Enzyme assay with UV-visible substrate
This assay is run using an Succinyl-Tyr-Val-Ala-Asp-pNitroanilide substrate (SEQ ID NO: 1). Synthesis of analogous substrates is described by L. A. Reiter (Int. J. Peptide Protein Res. 43, 87-96 (1994)). The assay mixture contains: […]
The visible ICE assay is run in a 96-well microtiter plate. Buffer, ICE and DMSO (if inhibitor is present) are added to the wells in the order listed. The components are left to incubate at room temperature for 15 minutes starting at the time that all components are present in all wells. The microtiter plate reader is set to incubate at 37° C. After the 15 minute incubation, substrate is added directly to the wells and the reaction is monitored by following the release of the chromophore (pNA) at 405-603 nm at 37° C. for 20 minutes. A linear fit of the data is performed and the rate is calculated in mOD/min. DMSO is only present during experiments involving inhibitors, buffer is used to make up the volume to 100 μl in the other experiments.
For determination of enzyme inhibition constants (Ki) or the mode of inhibition (competitive, uncompetitive or noncompetitive), the rate data determined in the enzyme assays at varying inhibitor concentrations are computer-fit to standard enzyme kinetic equations (see I. H. Segel, Enzyme Kinetics, Wiley-Interscience, 1975).
Work on `CC(=O)N[C@@H](Cc1ccc(O)cc1)C(=O)N[C@H](C(=O)N1Cc2ccccc2C[C@H]1C(=O)NC(C=O)CC(=O)O)C(C)C` (stereo partly drawn) [L, N-[2-(N-Acetyl-tyrosinyl-valinyl)-(S)-1,2,3,4-tetrahydroisoquinoline-3-carbonyl]-3-amino-oxobutanoic acid] (Ac-YV[Tic][ξD]-aldehyde) yielded a Ki of 14 nM. Molecule `C[C@H](NC(=O)c1cnc(CCc2ccccc2)[nH]1)C(=O)N[C@H](C=O)CC(=O)O` [Compound 33a, (3S)3-{N-[2-(2-Phenylethyl)imidazole-4-carbonyl]-L-alaninyl}amino-4-oxobutanoic acid] has a Ki of 5500 nM. With `C[C@H](NC(=O)c1ccc[nH]1)C(=O)N[C@H](C=O)CC(=O)O` [Compound 36a, (3S)3-[N-(Pyrrole-2-carbonyl)-L-alaninyl]amino-4-oxobutanoic acid] the Ki was 4700 nM. Molecule `C[C@H](NC(=O)c1ncc(CCc2ccccc2)[nH]1)C(=O)N[C@H](C=O)CC(=O)O` [Compound 20c, (3S)3-{N-[4-(2-Phenylethyl)imidazole-2-carbonyl]-L-alaninyl}amino-4-oxobutanoic acid] has a Ki of 950 nM. With `C[C@H](NC(=O)c1cnc(Cc2ccccc2)[nH]1)C(=O)N[C@H](C=O)CC(=O)O` [Compound 33c, (3S)3-[N-(2-Benzylimidazole-4-carbonyl)-L-alaninyl]amino-4-oxobutanoic acid] the Ki was 8600 nM. `C[C@H](NC(=O)c1ncc[nH]1)C(=O)N[C@H](C=O)CC(=O)O` [Compound 20a, (3S)3-[N-(Imidazole-2-carbonyl)-L-alaninyl]amino-4-oxobutanoic acid] showed a Ki of 3200 nM.

Same assay, conditions: Example 4 table
`O=C[C@H](CC(=O)O)NC(=O)[C@@H]1CCCN1C(=O)c1cc2ccccc2[nH]1` [Compound 39, (3S) 3-[1-(Indole-2-carbonyl)-L-prolinyl]amino-4-oxobutanoic acid] showed a Ki of 2500 nM. In the case of `C[C@H](NC(=O)c1ccc(Cc2ccccc2)[nH]1)C(=O)N[C@H](C=O)CC(=O)O` [Compound 36b, (3S)3-[N-(5-Benzylpyrrole-2-carbonyl)-L-alaninyl]amino-4-oxobutanoic acid], the Ki is reported as 800 nM. `Cc1c[nH]c2c(=O)n(CC(=O)N[C@H](C=O)CC(=O)O)cnc12` [Compound 43, (3S)-3-[2-(3,5-Dihydro-7-methyl-4-oxo-4H-pyrrolo[3,2-d]pyrimidin-3-yl)-1-oxo-ethylamino]-4-oxobutanoic acid] showed a Ki of 20000 nM. Molecule `O=C[C@H](CC(=O)O)NC(=O)[C@@H]1CCCN1C(=O)c1nc(CCCc2ccc(O)cc2)c[nH]1` [Compound 21f, (3S)3-{N-[4-[3-(4-Hydroxyphenyl)propyl]imidazole-2-carbonyl]-L-prolinyl}amino-4-oxobutanoic acid] has a Ki of 170 nM. In the case of `CC(C(=O)N[C@H](C=O)CC(=O)O)n1c(Cc2ccccc2)ccc(NC(=O)CCc2ccccc2)c1=O` (stereo partly drawn) [Compound 54h, 3(S), N(2(R,S))3-(2-(6-Benzyl-1,2-dihydro-2-oxo-3-(3-phenylpropionyl)amino-1-pyridyl)propionylamino)-4-oxobutanoic acid], the Ki is reported as 970 nM. `CC(=O)N[C@@H](Cc1ccc(O)cc1)C(=O)N[C@H](C(=O)N[C@@H](C)C(=O)N[C@H](CC(=O)O)C(=O)COCc1c(Cl)cccc1Cl)C(C)C` (mixture of isomers) [Compound 84b, (R,S)N-[N-(Acetyl)tyrosinyl-valinyl-alaninyl]-3-amino-5-(2,6-dichlorophenylmethyloxy)-4-oxo-pentanoic acid] gave a Ki of 19 nM. For `CC(C)[C@H](NC(=O)OCc1ccccc1)C(=O)N[C@@H](C)C(=O)N[C@H](CC(=O)O)C(=O)COCc1c(Cl)cccc1Cl` (mixture of isomers) [Compound 84a, (R,S) N-[N-(Phenylmethyloxy)carbonyl-valinyl-alaninyl]-3-amino-5-(2,6-dichlorophenylmethyloxy)-4-oxo-pentanoic acid], the Ki was 100 nM. Work on `C[C@H](NC(=O)c1nc(CCCc2ccccc2)c[nH]1)C(=O)N[C@H](C=O)CC(=O)O` [Compound 20d, (3S)3-{N-[4-(3-Phenylpropyl)imidazole-2-carbonyl]-L-alaninyl}amino-4-oxo-butanoic acid] yielded a Ki of 100 nM. In the case of `O=C[C@H](CC(=O)O)NC(=O)C1CCc2ncc(NC(=O)c3ccccc3)c(=O)n21` (single isomer, unassigned) [Compound 7b], the Ki is reported as 1200 nM. Work on `O=C[C@H](CC(=O)O)NC(=O)[C@@H]1CCCN1C(=O)c1nc(CCc2ccccc2)c[nH]1` [Compound 21c, (3S)3{N-[4-(2-Phenylethyl)imidazole-2-carbonyl]-L-prolinyl}amino-4-oxobutanoic acid] yielded a Ki of 640 nM. `COc1ccc(CCCc2c[nH]c(C(=O)N3CCC[C@H]3C(=O)N[C@H](C=O)CC(=O)O)n2)cc1` [Compound 21e, (3S)3-{N-[4-[3-(4-Methoxyphenyl)propyl]imidazole-2-carbonyl]-L-prolinyl}amino-4-oxobutanoic acid] was tested, and the Ki was 220 nM. Work on `C[C@H](NC(=O)c1nc(Cc2ccccc2)c[nH]1)C(=O)N[C@H](C=O)CC(=O)O` [Compound 20b, (3S)3-[N-(4-Benzylimidazole-2-carbonyl)-L-alaninyl]amino-4-oxobutanoic acid] yielded a Ki of 850 nM. Molecule `O=C[C@H](CC(=O)O)NC(=O)C1CCc2ncc(NC(=O)c3ccccc3)c(=O)n21` (single isomer, unassigned) [Compound 7a] has a Ki of 35000 nM. With `O=C[C@H](CC(=O)O)NC(=O)[C@@H]1CCCN1C(=O)c1nc(CCCc2ccccc2)c[nH]1` [Compound 21d, (3S) 3-{N-[4-(3-Phenylpropyl)imidazole-2-carbonyl]-L-prolinyl}amino-4-oxo-butanoic acid] the Ki was 240 nM.

Same assay, conditions: Example 6 table
For `C=CCO[C@@H]1C[C@@H](C(=O)N[C@H](C=O)CC(=O)O)N(C(=O)[C@@H](NC(=O)[C@H](Cc2ccc(O)cc2)NC(C)=O)C(C)C)C1` [Compound 85, N-(N-Acetyl-tyrosinyl-valinyl-(4 (R)-allyloxyprolinyl))-3(S)-amino-4-oxobutanoic acid] (Ac-YV[Hyp](Allyl)D-aldehyde), the Ki was 3.5 nM. For `O=C[C@H](CC(=O)O)NC(=O)CN1C(=O)[C@@H](NC(=O)CCc2ccccc2)CN(C(=O)CCc2ccccc2)c2ccccc21` [Compound 106b], the Ki was 200 nM. With `CC(=O)N[C@@H](Cc1ccc(O)cc1)C(=O)N[C@H](C(=O)N[C@@H](C)C(=O)N[C@@H](CC(=O)O)C(=O)COCc1ccccc1Cl)C(C)C` [Compound 89, N-Acetyl-(S)-tyrosinyl-(S)-valinyl-(S)-alaninyl-3(S)-amino-5-(2-chlorobenzyloxy)-4-oxo-pentanoic acid] the Ki was 18 nM. With `CC(C(=O)N[C@H](C=O)CC(=O)O)N1CCN(C(=O)CCc2ccccc2)C[C@H](NC(=O)CCc2ccccc2)C1=O` (mixture of isomers) [Compound 115, 4-Oxo-3(S)-{2(R,S)-[7-oxo-4-(3-phenyl-propionyl)-6(S)-(3-phenyl-propionylamino)-[1,4]diazepan-1-yl]propionylamino}-butyric acid] the Ki was 345 nM. Work on `O=C(O)C[C@H](NC(=O)CN1C(=O)[C@@H](NC(=O)CCc2ccccc2)CN(C(=O)CCc2ccccc2)c2ccccc21)C(=O)c1ncc(-c2c(Cl)cccc2Cl)o1` [Compound 108c, 4-[5-(2,6-Dichlorophenyl)oxazol-2-yl]-4-oxo-3(S)-{2-[2-oxo-5-(3-phenylpropionyl)-3(S)-(3-phenylpropionylamino)-2,3,4,5-tetrahydrobenzo[b][1,4]diazepin-1-yl]-acetylamino}butyric acid] yielded a Ki of 430 nM. `COc1ccc(CCCc2cnc(C(=O)N3C[C@H](Oc4ccccc4)C[C@H]3C(=O)N[C@H](C=O)CC(=O)O)[nH]2)cc1` [Compound 22e, 3(S)-[(1-{5-[3-(4-Methoxyphenyl)propyl]-1H-imidazole-2-carbonyl}-4(R)-phenoxypyrrolidine-2(S)-carbonyl)amino]-4-oxobutanoic acid] gave a Ki of 190 nM. `O=CC(CC(=O)O)NC(=O)CN1C(=O)C(NC(=O)OCc2ccccc2)CN(Cc2ccccc2)C(=O)C1Cc1ccccc1` (stereo not shown) [Compound 121, 3-{2-[2,4-Dibenzyl-3,7-dioxo-6-(N-benzyloxycarbonylamino)-[1,4]diazepan-1-yl]-acetylamino}-4-oxo-butyric acid] gave a Ki of 4300 nM. With `O=C(O)C[C@H](NC(=O)Cn1c(Cc2ccccc2)ccc(NC(=O)CCc2ccccc2)c1=O)C(=O)CO` [Compound 88, N-2-(6-Benzyl-1,2-dihydro-2-oxo-3-(3-phenylpropionyl)amino-1-pyridyl)acetyl-3(S)-amino-5-hydroxy-4-oxo-pentanoic acid] the Ki was 900 nM.
